# Test results: US20210353749A1, “GUANABENZ AS AN ADJUVANT FOR IMMUNOTHERAPY” (UNIVERSITÉ CATHOLIQUE DE LOUVAIN, priority 2018, published 2021)
# Tests used:
# TiRP tumor [1] = assay: Immunodeficient Rag1-/- TiRP+/+ mice, TiRP tumor; format: in vivo, mouse; conditions: Rag1-/- TiRP+/+ mice lacking T cells, 5 mg/kg i.p. daily from about 500 mm^3 (day 0) to day 15, vs control; FIG. 4
# Method: FIG. 4 is a graph showing the tumor size in the immunodeficient Rag1^-/- TiRP^+/+ mice that were injected with 4-OH-Tamoxifen to induce a TiRP tumor. When the tumor reached 500 mm^3 (day 0), the tumor bearing mice were randomized and received daily injections of guanabenz (5 mg/kg, i.p.) or vehicle (PBS, i.p.) until the day of sacrifice (day 15). A fresh solution of […]-Tamoxifen was prepared by dissolving […]-Tamoxifen ([…]) in 100% ethanol and mineral oil (ratio 1:9) followed by 30-min sonication, and injected subcutaneously (2 mg/200 μL per mouse) in the neck area of gender-matched 7 weeks old TiRP mice. Tumor appearance was monitored daily and tumors were measured three times/week. Tumor volume (in mm^3) was calculated by the following formula: Volume=width^2×length/2. Tumor-bearing TiRP mice were randomized based on the tumor size when average volume was 400 mm^3, 500 mm^3 or 1000 mm^3 as indicated. T cells were incubated with guanabenz (10, 20, or 40 μM) for 16 h to 24 h as indicated. Mice received a daily intra-peritoneal injection of guanabenz (5 mg/kg) or vehicle (PBS) from the day of randomization (and the day of ACT when applicable) until the day of sacrifice. As a control, tumors were induced in immunodeficient TiRP mice lacking T cells due to the deletion of the Rag1 gene (Rag 1^-/- TiRP^+/+ mice). […]
# TiRP tumor [2] = assay: TiRP melanoma model with adoptive cell transfer of activated P1A-specific CD8+ T cells; format: in vivo, mouse
# Description: TiRP mice: TiRP mice have been created by crossing Ink4a/Arf^flox/flox mice with mice carrying a transgenic construct controlled by the tyrosinase promoter and driving the expression of H-Ras^12V and Trap1a which encodes a MAGE-type tumor antigen P1A; the promoter is separated from the coding region by a stop cassette made of a floxed self-deleting CreER (Huijbers et al., 2006, Cancer Res 66, 3278-3286). Those mice were backcrossed to a B10.D2 background and bred to homozygosity. TCRP1A mice heterozygous for the H-2Ld/P1A35-43-specific TCR transgene were kept on the B10.D2; Rag1^−/− background (Shanker et al., 2004, J Immunol 172, 5069-5077). All mice used in this study were produced under specific pathogen free (SPF) conditions at the animal facility of the Ludwig Institute for Cancer Research. All the rules concerning animal welfare have been respected according to the 2010/63/EU Directive. All procedures were performed with the approval of the local Animal Ethical Committee, with reference 2015/UCL/MD/15.
# A fresh solution of 40H-Tamoxifen was prepared by dissolving 40H-Tamoxifen (Imaginechem) in 100% ethanol and mineral oil (ratio 1:9) followed by 30-min sonication, and injected subcutaneously (2 mg/200 μL per mouse) in the neck area of gender-matched 7 weeks old TiRP mice. Tumor appearance was monitored daily and tumors were measured three times/week. Tumor volume (in mm^3) was calculated by the following formula: Volume=width^2×length/2. Tumor-bearing TiRP mice were randomized based on the tumor size when average volume was 400 mm^3, 500 mm^3 or 1000 mm^3 as indicated.
# (§1) T cells were incubated with guanabenz (10, 20, or 40 μM) for 16 h to 24 h as indicated. Mice received a daily intra-peritoneal injection of guanabenz (5 mg/kg) or vehicle (PBS) from the day of randomization (and the day of ACT when applicable) until the day of sacrifice.
# For the adoptive cell transfer (ACT), P1A-specific (TCRP1A) CD8^+ T cells were isolated from spleens and lymph nodes of TCRP1A mice as described hereinabove, and stimulated in vitro by co-culture with irradiated (10.000 rads) L1210-P1A-B7.1 cells (Gajewski et al., 1995, J Immunol 154, 5637-5648) at 1:2 ratio (0.5×10^5 CD8^+ T cells and 10^5 L1210-P1A-B7.1 cells per well in 48-well plates) in IMDM (GIBCO) containing 10% fetal bovine serum supplemented with L-arginine (0.55 mM, Merck), L-asparagine (0.24 mM, Merck), glutamine (1.5 mM, Merck), betamercaptoethanol (50 μM, Sigma), 50 UmL^−1 penicillin and […] (Life Technologies). Four days later, TCRP1A CD8^+ T cells were purified on a Lymphoprep gradient (StemCell) and 10^7 living cells were injected intravenously in 200 μL PBS in TiRP-tumor bearing mice on the day of randomization.
# Mice received a daily intra-peritoneal injection of alprenolol (5 mg/kg) or vehicle (PBS) from the day of ACT until the day of sacrifice.
# T cells were incubated with sunitinib (0.1, 0.3, 0.8, 2.5 or 4 μM) for 16 h as indicated. Mice received a daily dose of sunitinib (20 mg/kg) or vehicle (PBS) by oral gavage from the day of ACT until the day of sacrifice.
# [3] = tested on: Mouse TCRP1A CD8+ T cells; assay: CD107 cytotoxicity assay (degranulation assay), mouse T cells; format: cell-based; conditions: 16 hours
# Method: Mouse TCRP1A CD8^+ T cells: P1A-specific (TCRP1A) CD8^+ T cells were isolated from spleens and lymph nodes of TCRP1A mice using anti-mouse CD8a (Ly-2) MicroBeads (Miltenyi Biotec).
# CD107 cytotoxicity assay (Degranulation assay): TCRP1A CD8^+ T cells were plated at 50,000 cells per well in a 96 U plate with different concentrations of guanabenz and incubated at 37° C. overnight prior to their use in the assay on the next day. On the day of the assay, the culture supernatant was removed from the cells and the cells were washed once with complete medium to remove the drug. The target cells L1210-P1A-B7.1 were added to the wells at a ratio of 1:1. Control wells containing either only T cells or target cells were also included for each plate. CD107a-APC was added to each well at the same time as addition of the target cells. The plate was then incubated at 37° C. for 90 minutes. At the end of the incubation period the cells were harvested and washed once with PBS. They were stained with anti-mouse CD8-Bv421 antibody for 15 minutes. The cells were then washed and resuspended in PBS and analyzed using FACS Fortessa flow cytometer. Human CD8^+ T cell degranulation was evaluated in a similar way. To induce CD8^+ T cell degranulation, T2 cells loaded with synthetic WT1126-134 peptide (10^6 T2 cells were incubated for 1 hour in 200 μL Optimem medium with 100 μmol/L synthetic peptide at 37° C.) were used as target cells.
# as §1
# CD107 cytotoxicity assay (Degranulation assay): the assay was carried out as described hereinabove (see Example 1) with different 20 μM guanabenz or different concentrations of alprenolol or sunitinib, as indicated.
# T cells were incubated with 20 μM guanabenz for 16 h as indicated.
# T cells were incubated with alprenolol (5 or 20 μM) for 16 h as indicated. […]
smiles,measurement,setting,value
"NC(N)=N/N=C/c1c(Cl)cccc1Cl [guanabenz, 2-[(E)-(2,6-dichlorophenyl)methylideneamino]guanidine]",TiRP tumor growth,TiRP tumor [1],did not induce a decrease
same,tumor growth,"TiRP tumor [2]; guanabenz 5 mg/kg i.p. daily with ACT of 10 million activated T cells, day 0 to day 18, vs ACT alone, FIG. 5A",significantly decreased
same,tumor infiltration of CD8+ T cells (P1A tetramer+ CD8+ T cells among total living cells and among total CD8+ T cells),"TiRP tumor [2]; guanabenz 5 mg/kg i.p. daily with ACT, 10 days after ACT, FIG. 5C-D",increased
same,apoptosis of the adoptively transferred CD8+ T cells,"TiRP tumor [2]; guanabenz 5 mg/kg i.p. daily with ACT, 10 days after ACT, FIG. 5E",reduced
same,percentage of CD69+ P1A-specific CD8+ T cells (T cell activation marker),"TiRP tumor [2]; guanabenz 5 mg/kg i.p. daily with ACT, 10 days after ACT, FIG. 5F",increased percentage
same,tumor weight on the day of sacrifice,"TiRP tumor [2]; guanabenz 5 mg/kg i.p. daily with ACT, day 18, vs ACT alone, FIG. 5B",significantly decreased
same,T cell degranulation (FACS detection of CD107a),"[3]; guanabenz 20 μM, vs control, FIG. 12A",did significantly increase
same,T cell degranulation (FACS detection of CD107a),"[3]; guanabenz 10, 20 or 40 μM, co-culture with L1210-P1A-B7.1 target cells, FIG. 1A",increased
